According to patent US20260184706A1, “PHENYLSULFONAMIDE DERIVATIVES, PREPARATION METHOD THEREFOR, AND PHARMACEUTICAL COMPOSITION FOR PREVENTION OR TREATMENT OF CANCER CONTAINING SAME AS ACTIVE INGREDIENT” (Korea Research Institute of Chemical Technology, priority 2022, published 2026):

Columns and labels:
[1] = biological target: recombinant human HRI protein (Homo sapiens, UniProt Q9BQI3); experiment: eIF2-alpha kinase heme-regulated inhibitor (HRI) inhibitory capacity, 33P-ATP filter assay; type: biochemical; conditions: 45 uM [gamma-33P-ATP], 40 minutes, room temperature
recombinant human HRI protein, sequence (Q9BQI3 whole entry): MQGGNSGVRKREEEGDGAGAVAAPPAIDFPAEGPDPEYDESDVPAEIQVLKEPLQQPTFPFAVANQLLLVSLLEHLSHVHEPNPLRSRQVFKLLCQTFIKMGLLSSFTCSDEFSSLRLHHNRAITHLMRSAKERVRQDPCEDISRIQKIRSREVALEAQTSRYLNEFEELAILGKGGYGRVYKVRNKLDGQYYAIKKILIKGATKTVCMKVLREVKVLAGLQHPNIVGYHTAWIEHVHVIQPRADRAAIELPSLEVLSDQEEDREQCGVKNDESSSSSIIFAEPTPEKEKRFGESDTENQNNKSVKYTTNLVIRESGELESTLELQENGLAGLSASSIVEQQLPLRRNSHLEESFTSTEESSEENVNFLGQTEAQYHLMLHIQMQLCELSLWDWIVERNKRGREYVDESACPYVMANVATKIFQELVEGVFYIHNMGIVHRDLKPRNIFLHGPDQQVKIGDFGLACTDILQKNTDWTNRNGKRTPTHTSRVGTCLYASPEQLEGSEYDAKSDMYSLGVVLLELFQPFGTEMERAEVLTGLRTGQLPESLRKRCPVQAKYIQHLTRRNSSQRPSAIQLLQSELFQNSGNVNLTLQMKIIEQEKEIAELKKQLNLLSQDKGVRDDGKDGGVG
Description: <Experimental Example 3> Evaluation of eIF2-Alpha Kinase Heme-Regulated Inhibitor (HRI) Inhibitory Capacity
A recombinant human HRI protein was mixed with the compound in a reaction solution (50 mM Tris/HCl pH 7.5, 0.04 mM EDTA, 300 uM RSRSRSRSRSRSRSR, 10 mM Magnesium acetate, 45 uM [gamma-33P-ATP]) and reacted at room temperature for 40 minutes. Then, the reaction was terminated by adding phosphoric acid (0.5%) to the reaction mixture, and […] of the reaction solution was dropped onto a P30 filter. The filter was washed four times in a 0.425% phosphoric acid solution for 4 minutes, then […] washed once more in methanol, dried, and the HRI activity was measured by scintillation counting. […] The compound was diluted by 1/3 from the highest concentration of 1 uM and treated with a total of 9 concentrations to evaluate the degree of inhibition.

phosphorylated GCN2 = biological target: T1, phosphorylated GCN2 (Homo sapiens, UniProt Q9P2K8); experiment: Inhibition of phosphorylated GCN2 under amino acid deficiency in HT-1080 cells, Western blot; type: cell-based; conditions: compound 50 nM, 24 hours; for Phospho-GCN2 inhibition: symbols ◯ / X not defined
T1 construct: endogenous in cells; host or cells: HT-1080
T1 sequence (Q9P2K8 whole entry): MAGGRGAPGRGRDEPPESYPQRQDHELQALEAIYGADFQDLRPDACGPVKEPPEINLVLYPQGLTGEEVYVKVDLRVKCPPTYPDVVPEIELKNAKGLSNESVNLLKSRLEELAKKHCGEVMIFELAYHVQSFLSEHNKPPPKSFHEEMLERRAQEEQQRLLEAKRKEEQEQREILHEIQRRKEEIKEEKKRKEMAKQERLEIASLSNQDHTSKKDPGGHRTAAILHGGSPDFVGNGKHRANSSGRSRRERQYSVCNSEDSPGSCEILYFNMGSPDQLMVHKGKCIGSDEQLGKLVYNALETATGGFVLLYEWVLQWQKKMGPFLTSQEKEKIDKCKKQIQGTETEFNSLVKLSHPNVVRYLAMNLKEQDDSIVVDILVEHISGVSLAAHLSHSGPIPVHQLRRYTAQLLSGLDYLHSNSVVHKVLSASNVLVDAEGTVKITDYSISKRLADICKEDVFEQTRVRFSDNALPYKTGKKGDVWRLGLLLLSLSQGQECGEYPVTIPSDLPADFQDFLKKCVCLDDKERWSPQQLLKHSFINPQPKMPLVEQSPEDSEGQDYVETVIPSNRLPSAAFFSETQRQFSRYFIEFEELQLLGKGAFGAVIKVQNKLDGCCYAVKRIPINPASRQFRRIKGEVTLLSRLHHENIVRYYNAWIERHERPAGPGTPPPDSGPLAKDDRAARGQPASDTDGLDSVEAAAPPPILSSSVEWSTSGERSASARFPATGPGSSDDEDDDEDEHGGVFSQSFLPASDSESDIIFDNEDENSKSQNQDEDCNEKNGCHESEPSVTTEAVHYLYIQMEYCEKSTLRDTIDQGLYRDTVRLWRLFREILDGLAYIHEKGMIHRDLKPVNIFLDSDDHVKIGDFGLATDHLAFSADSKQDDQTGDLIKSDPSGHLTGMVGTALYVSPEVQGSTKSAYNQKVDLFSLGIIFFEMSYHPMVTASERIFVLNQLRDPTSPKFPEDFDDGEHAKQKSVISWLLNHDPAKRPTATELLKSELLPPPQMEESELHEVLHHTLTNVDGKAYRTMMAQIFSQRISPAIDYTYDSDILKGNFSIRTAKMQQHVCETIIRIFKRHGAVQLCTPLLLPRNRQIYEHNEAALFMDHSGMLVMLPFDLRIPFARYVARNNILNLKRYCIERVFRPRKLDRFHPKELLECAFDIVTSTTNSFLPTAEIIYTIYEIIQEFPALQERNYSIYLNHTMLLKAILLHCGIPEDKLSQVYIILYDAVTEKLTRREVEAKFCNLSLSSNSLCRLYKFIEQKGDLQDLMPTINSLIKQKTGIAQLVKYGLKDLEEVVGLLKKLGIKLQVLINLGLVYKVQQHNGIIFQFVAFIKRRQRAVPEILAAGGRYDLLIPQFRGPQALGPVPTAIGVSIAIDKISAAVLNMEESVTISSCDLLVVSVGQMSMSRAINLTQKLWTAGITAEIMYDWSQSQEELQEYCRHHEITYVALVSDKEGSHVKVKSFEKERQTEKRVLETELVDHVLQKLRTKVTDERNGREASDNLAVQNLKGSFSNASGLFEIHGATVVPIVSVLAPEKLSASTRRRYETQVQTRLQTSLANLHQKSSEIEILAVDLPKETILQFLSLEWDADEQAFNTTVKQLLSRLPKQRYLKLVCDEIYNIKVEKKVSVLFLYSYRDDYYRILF
Description: <Experimental Example 5> Evaluation of Inhibitory Efficacy of ISR-Related Kinase GCN2 Under Amino Acid Deficiency Condition Using Western Blot
HT-1080 cells, a human fibrosarcoma cell line, were cultured in RPMI-1640 medium supplemented with 10% FBS, penicillin (penicillin; 100 IU/ml), and streptomycin (streptomycin; 100 μg/ml). Cells (1×10^6 cells/ml) were seeded onto 100 mm plates (polypropylene tissue culture plate) and incubated for 24 hours in a 37° C., 5% CO2 incubator before being used for experiments.
The following method was used to achieve amino acid deficiency conditions in cells. After 24 hours of cell culture, the cells were cultured in amino acids and L-glutamine-free RPMI-1640 medium supplemented with 10% FBS, penicillin (100 IU/ml), and streptomycin (100 μg/ml). After 24 hours of cell culture in RPMI-1640 without amino acids and L-glutamine, the compound prepared at a concentration of 50 nM was dispensed onto each plate and cultured for 24 hours in a 37° C., 5% CO2 incubator.
In order to measure the signal transduction inhibitory efficacy of GCN among the ISR-related kinases according to the present invention, the following experiment was performed using SDS-PAGE. The fibrosarcoma cell line HT-1080 cells cultured on plates as described above were washed with PBS after removing the culture medium. After removing PBS, the cells were lysed by adding a radio-immunoprecipitation assay buffer (RIPA buffer) containing 50 mM Tris (pH 7.4), 150 mM NaCl, 1% NP-40, 0.5% sodium deoxycholate, 2 mM sodium fluoride, 2 mM EDTA, 0.1% SDS, and a protease/phosphatase inhibitor cocktail to the plate. After centrifugation at 4° C., 13,000×g for 15 minutes, the protein in the upper layer was collected, and the protein concentration was measured at 562 nm using BCA (bicinchoninc acid) reagent, and the amount of protein in all samples was prepared at 20-50 μg.
After making the total volume the same using the sample buffer and RIPA buffer, it was heated at 97° C. for 5 minutes. Then, electrophoresis was performed on 8% or 12% SDS-PAGE at 80 V for 30 minutes and at 160 V for 1 hour and 30 minutes. After electrophoresis, the SDS-PAGE gel was transferred to an NC membrane (nitrocellulose membrane) at 90 V for 2 hours. The NC membrane was placed in TBST (tris buffer saline tween-20; 20 mM tris, 137 mM sodium chloride, 0.1% tween-20, pH 8.0) containing 5% non-fat skim milk, placed on a shaker, and reacted at room temperature for 1 hour.
Each primary antibody was diluted in TBST containing 5% non-fat skim milk, poured onto the NC membrane, and reacted at 4° C. for 24 hours. The membrane was washed three times for 10 minutes each with TBST. The secondary antibodies (anti-rabbit IgG and anti-mouse IgG labeled with horseradish peroxidase (HRP)) were diluted in TBST containing 5% non-fat skim milk and reacted with the membrane at room temperature for 1 hour. Upon completion of the reaction, the membrane was washed three times with TBST for 10 minutes each. Protein expression bands were detected by a chemiluminescence image analyzer (Image Quant LAS 500) after the ECL solution was reacted with the NC membrane.
GCN2, a key kinase of the integrated stress response (ISR), is phosphorylated in response to amino acid deficiency.

[2] = biological target: recombinant human GCN2 protein (Homo sapiens, UniProt Q9P2K8); experiment: General control nonderepressible 2 (GCN2) inhibitory capacity, 33P-ATP filter assay; type: biochemical; conditions: recombinant human GCN2, 70 uM [gamma-33P-ATP], 40 minutes, room temperature
recombinant human GCN2 protein, sequence (Q9P2K8 whole entry): as above

Q: Which IC50 [1] does the source give for `COc1ncc(Cl)cc1S(=O)(=O)Nc1ccc(F)c(-n2cc(C(F)F)c3nc(N)ncc3c2=O)c1F` [Example 22, N-(3-(2-amino-8-(difluoromethyl)-5-oxopirido[4,3-d]pyrimidin-6(5H)-yl)-2,4-difluorophenyl)-5-chloro-2-methoxypyridine-3-sulfonamide] here?
A: Its IC50 is under 100 nM.

Q: And the “inhibitory effect on the phosphorylated GCN2” value (“inhibitory effect” for short) (phosphorylated GCN2)?
A: The value was “excellent inhibitory effects”.

Q: What about the Phospho-GCN2 inhibition (phosphorylated GCN2) of the same compound?
A: The Phospho-GCN2 inhibition was “◯”.

Q: What about the IC50 [2] of the same compound?
A: Its IC50 is under 100 nM.

Q: How did the IC50 [1] turn out when `Nc1ncc2c(=O)n(-c3c(F)ccc(NS(=O)(=O)c4cc(Cl)cnc4Cl)c3F)ccc2n1` [Example 27, N-(3-(2-amino-5-oxopirido[4,3-d]pyrimidin-6(5H)-yl)-2,4-difluorophenyl)-2,5-dichloropyridine-3-sulfonamide] was run?
A: The IC50 was under 100 nM.

Q: And the “inhibitory effect” value (phosphorylated GCN2)?
A: The value was “excellent inhibitory effect”.

Q: What about the Phospho-GCN2 inhibition (phosphorylated GCN2) of the same compound?
A: Its Phospho-GCN2 inhibition is “◯”.

Q: What about the IC50 [2] of the same compound?
A: Its IC50 is under 100 nM.

Q: Which IC50 [1] does the source give for `Nc1ncc2c(=O)n(-c3c(F)ccc(NS(=O)(=O)c4cccc5ccccc45)c3F)ccc2n1` [Example 29, N-(3-(2-amino-5-oxopirido[4,3-d]pyrimidin-6(5H)-yl)-2,4-difluorophenyl)naphthalene-1-sulfonamide] here?
A: The IC50 was under 100 nM.

Q: What about the “inhibitory effect” value (phosphorylated GCN2) of the same compound?
A: Its value is “excellent inhibitory effects”.

Q: What about the Phospho-GCN2 inhibition (phosphorylated GCN2) of the same compound?
A: The Phospho-GCN2 inhibition was “◯”.

Q: And the IC50 [2]?
A: The IC50 was under 100 nM.

Q: For `CNc1ncc2c(=O)n(-c3c(F)ccc(NS(=O)(=O)c4cc(Cl)cnc4OC)c3F)ccc2n1` [Example 32, 5-chloro-N-(2,4-difluoro-3-(2-(methylamino)-5-oxopirido[4,3-d]pyrimidin-6(5H)-yl)phenyl)-2-methoxypyridine-3-sulfonamide], which IC50 [1] is on record?
A: The IC50 was under 100 nM.

Q: What about the “inhibitory effect” value (phosphorylated GCN2) of the same compound?
A: The value was “excellent inhibitory effect”.

Q: What about the Phospho-GCN2 inhibition (phosphorylated GCN2) of the same compound?
A: Its Phospho-GCN2 inhibition is “◯”.

Q: What about the IC50 [2] of the same compound?
A: The IC50 was under 100 nM.

Q: Which results are given for `COc1ncc(Cl)cc1S(=O)(=O)Nc1ccc(F)c(-n2c(=O)c3cnc(N)nc3n(C)c2=O)c1F` [Example 44, N-(3-(7-amino-1-methyl-2,4-dioxo-1,4-dihydropyrimido[4,5-d]pyrimidin-3(2H)-yl)-2,4-difluorophenyl)-5-chloro-2-methoxypyridine-3-sulfonamide]?
A: IC50 [1]: < 100 nM; inhibitory effect on the phosphorylated GCN2 (phosphorylated GCN2): excellent inhibitory effects; Phospho-GCN2 inhibition (phosphorylated GCN2): ◯; IC50 [2]: 100 to 300 nM

Q: `COc1ncc(Br)cc1S(=O)(=O)Nc1ccc(F)c(-n2c(=O)c3cnc(N)nc3n(C)c2=O)c1F` [Example 46, N-(3-(7-amino-1-methyl-2,4-dioxo-1,4-dihydropyrimido[4,5-d]pyrimidin-3(2H)-yl)-2,4-difluorophenyl)-5-bromo-2-methoxypyridine-3-sulfonamide] was tested. Which IC50 [1] did it give?
A: The IC50 was 100 to 300 nM.

Q: And the “inhibitory effect” value (phosphorylated GCN2)?
A: Its value is “excellent inhibitory effects”.

Q: And the Phospho-GCN2 inhibition (phosphorylated GCN2)?
A: Its Phospho-GCN2 inhibition is “◯”.

Q: What about the IC50 [2] of the same compound?
A: Its IC50 is under 100 nM.
